Laboratory results: paper PMC5218480 (PLoS ONE, 2017)

System: MV-4-11 cells
Assay: Gene expression microarray analysis (Affymetrix PrimeView) and GSEA
Format: cell-based, human
Parameters: RFU PODN (11730768_x_at) / Fold change /veh PODN (11730768_x_at) / RFU LINC00158 (11744669_a_at) / Fold change /veh LINC00158 (11744669_a_at) / RFU DUSP10 (11751237_a_at) / Fold change /veh DUSP10 (11751237_a_at) / RFU ID3 (11757404_x_at) / Fold change /veh ID3 (11757404_x_at) / RFU PLEKHG5 (11737974_s_at) / Fold change /veh PLEKHG5 (11737974_s_at) / RFU LRRC4B (11730491_at) / Fold change /veh LRRC4B (11730491_at) / RFU GIMAP4 (11747438_a_at) / Fold change /veh GIMAP4 (11747438_a_at) / RFU KRT8 (11758183_x_at) / Fold change /veh KRT8 (11758183_x_at) / RFU CNN1 (11734310_a_at) / Fold change /veh CNN1 (11734310_a_at) / RFU VPS37D (11726825_at) / Fold change /veh VPS37D (11726825_at) / RFU C10orf10 (11716522_x_at) / Fold change /veh C10orf10 (11716522_x_at) / RFU KIR2DL2 /// KIR2DL4 /// KIR2DL5A /// KIR2DL5B /// KIR2DS1 /// KIR2DS2 /// KIR2DS3 /// KIR2DS4 /// KIR3DL3 /// KIR3DL3 /// KIR3DS1 (11738374_at) / Fold change /veh KIR2DL2 /// KIR2DL4 /// KIR2DL5A /// KIR2DL5B /// KIR2DS1 /// KIR2DS2 /// KIR2DS3 /// KIR2DS4 /// KIR3DL3 /// KIR3DL3 /// KIR3DS1 (11738374_at) / RFU C1QL1 (11718748_at) / Fold change /veh C1QL1 (11718748_at) / RFU TMPRSS4 (11747572_a_at) / Fold change /veh TMPRSS4 (11747572_a_at) / RFU HAMP (11756126_x_at) / Fold change /veh HAMP (11756126_x_at) / RFU RNFT2 (11725882_a_at) / Fold change /veh RNFT2 (11725882_a_at) / RFU NR4A2 (11747474_a_at) / Fold change /veh NR4A2 (11747474_a_at) / RFU ABCC12 (11746883_a_at) / Fold change /veh ABCC12 (11746883_a_at) / RFU TMEM136 (11760407_x_at) / Fold change /veh TMEM136 (11760407_x_at) / RFU CLDN22 /// WWC2 (11732394_at) / Fold change /veh CLDN22 /// WWC2 (11732394_at) / RFU HLA-DPB1 (11760878_x_at) / Fold change /veh HLA-DPB1 (11760878_x_at) / RFU SPINT1 (11716480_a_at) / Fold change /veh SPINT1 (11716480_a_at) / RFU GAP43 (11754022_s_at) / Fold change /veh GAP43 (11754022_s_at) / RFU A4GNT (11735810_at) / Fold change /veh A4GNT (11735810_at) / RFU PRB3 (11715151_x_at) / Fold change /veh PRB3 (11715151_x_at) / RFU TUBB4B (11761932_at) / Fold change /veh TUBB4B (11761932_at) / RFU CAPN14 (11732068_a_at) / Fold change /veh CAPN14 (11732068_a_at) / RFU TMCC2 (11721928_a_at) / Fold change /veh TMCC2 (11721928_a_at) / RFU IRGQ (11745062_a_at) / Fold change /veh IRGQ (11745062_a_at) / RFU FAM174B (11720279_a_at) / Fold change /veh FAM174B (11720279_a_at) / RFU TMPRSS4 (11748680_a_at) / Fold change /veh TMPRSS4 (11748680_a_at) / RFU FAM212B (11763350_a_at) / Fold change /veh FAM212B (11763350_a_at) / RFU PLEKHG5 (11743358_a_at) / Fold change /veh PLEKHG5 (11743358_a_at) / RFU ZSCAN30 (11745921_a_at) / Fold change /veh ZSCAN30 (11745921_a_at) / RFU CMKLR1 (11741424_a_at) / Fold change /veh CMKLR1 (11741424_a_at) / RFU LOC101060620 /// MAPK8IP1 (11723275_at) / Fold change /veh LOC101060620 /// MAPK8IP1 (11723275_at) / RFU SPTSSB (11747773_x_at) / Fold change /veh SPTSSB (11747773_x_at) / RFU PRSS12 (11739890_at) / Fold change /veh PRSS12 (11739890_at) / RFU BIN1 (11741810_x_at) / Fold change /veh BIN1 (11741810_x_at) / RFU WNT11 (11732464_a_at) / Fold change /veh WNT11 (11732464_a_at) / RFU C10orf10 (11716521_a_at) / Fold change /veh C10orf10 (11716521_a_at) / RFU C5orf56 (11738089_at) / Fold change /veh C5orf56 (11738089_at) / RFU CYB561 (11721691_x_at) / Fold change /veh CYB561 (11721691_x_at) / RFU ANKRD19P (11752326_a_at) / Fold change /veh ANKRD19P (11752326_a_at) / RFU OR2T12 /// OR2T33 /// OR2T8 (11738714_s_at) / Fold change /veh OR2T12 /// OR2T33 /// OR2T8 (11738714_s_at) / RFU VCAN (11748164_a_at) / Fold change /veh VCAN (11748164_a_at) / RFU JSRP1 (11732532_at) / Fold change /veh JSRP1 (11732532_at) / RFU KRTAP10-11 (11738290_x_at) / Fold change /veh KRTAP10-11 (11738290_x_at) / RFU MYO3A (11730013_a_at) / Fold change /veh MYO3A (11730013_a_at) / RFU EBF3 (11725865_a_at) / Fold change /veh EBF3 (11725865_a_at) / RFU CAMK2N1 (11719241_x_at) / Fold change /veh CAMK2N1 (11719241_x_at) / RFU C5orf56 (11738088_a_at) / Fold change /veh C5orf56 (11738088_a_at) / RFU OLFML3 (11715873_a_at) / Fold change /veh OLFML3 (11715873_a_at) / RFU LOC100653217 /// NTM (11731650_a_at) / Fold change /veh LOC100653217 /// NTM (11731650_a_at) / RFU MAPK11 (11762145_a_at) / Fold change /veh MAPK11 (11762145_a_at) / RFU FIZ1 (11724087_x_at) / Fold change /veh FIZ1 (11724087_x_at) / RFU OASL (11726364_x_at) / Fold change /veh OASL (11726364_x_at) / RFU SOX15 (11748057_x_at) / Fold change /veh SOX15 (11748057_x_at) / RFU CD79A (11719716_a_at) / Fold change /veh CD79A (11719716_a_at) / RFU HIST1H1D (11736915_at) / Fold change /veh HIST1H1D (11736915_at) / RFU CASKIN2 (11723855_a_at) / Fold change /veh CASKIN2 (11723855_a_at) / RFU LOC730098 (11760151_x_at) / Fold change /veh LOC730098 (11760151_x_at) / RFU OR4N2 (11742367_at) / Fold change /veh OR4N2 (11742367_at) / RFU PRRT2 (11749266_a_at) / Fold change /veh PRRT2 (11749266_a_at) / RFU SNX32 (11753110_a_at) / Fold change /veh SNX32 (11753110_a_at) / RFU CDHR5 (11726645_a_at) / Fold change /veh CDHR5 (11726645_a_at) / RFU RCAN1 (11760418_a_at) / Fold change /veh RCAN1 (11760418_a_at) / RFU FAM167A (11723789_a_at) / Fold change /veh FAM167A (11723789_a_at) / RFU FAM26E (11764081_at) / Fold change /veh FAM26E (11764081_at) / RFU ISYNA1 (11749810_s_at) / Fold change /veh ISYNA1 (11749810_s_at) / RFU ACY1 (11761880_at) / Fold change /veh ACY1 (11761880_at) / RFU 11764098_at / Fold change /veh 11764098_at / RFU SAMD14 (11745864_x_at) / Fold change /veh SAMD14 (11745864_x_at) / RFU NPB (11741838_a_at) / Fold change /veh NPB (11741838_a_at) / RFU TMPRSS6 (11731388_a_at) / Fold change /veh TMPRSS6 (11731388_a_at) / RFU KRTAP10-2 (11738614_at) / Fold change /veh KRTAP10-2 (11738614_at) / RFU ARHGAP8 /// PRR5-ARHGAP8 (11727945_x_at) / Fold change /veh ARHGAP8 /// PRR5-ARHGAP8 (11727945_x_at) / RFU KRTAP5-7 /// NADSYN1 (11734609_at) / Fold change /veh KRTAP5-7 /// NADSYN1 (11734609_at) / RFU RASL12 (11751679_a_at) / Fold change /veh RASL12 (11751679_a_at) / RFU CDKN2B (11736163_a_at) / Fold change /veh CDKN2B (11736163_a_at) / RFU PRF1 (11729649_at) / Fold change /veh PRF1 (11729649_at) / RFU, ZNF638 /// ZNF638-IT1 / Fold change vs veh, ZNF638 /// ZNF638-IT1 / RFU, PANK3 / Fold change vs veh, PANK3 / RFU, SH3YL1 / Fold change vs veh, SH3YL1 / RFU, ZEB2 / Fold change vs veh, ZEB2 / RFU, NRIP1 / Fold change vs veh, NRIP1 / RFU, PTTG1IP / Fold change vs veh, PTTG1IP / RFU, CAPN2 / Fold change vs veh, CAPN2 / RFU, MED14 / Fold change vs veh, MED14 / RFU, SNORA58 / Fold change vs veh, SNORA58 / RFU, C1orf63 / Fold change vs veh, C1orf63 / RFU, LRRFIP1 / Fold change vs veh, LRRFIP1 / RFU, NDUFAF7 / Fold change vs veh, NDUFAF7 / RFU, SLC12A2 / Fold change vs veh, SLC12A2 / RFU, IBTK / Fold change vs veh, IBTK / RFU, ESF1 / Fold change vs veh, ESF1 / Fold change vs veh, TMEM50B / RFU, TAOK1 / Fold change vs veh, TAOK1 / RFU, ACBD3 / Fold change vs veh, ACBD3 / RFU, TMA16 / Fold change vs veh, TMA16 / RFU, RWDD3 / Fold change vs veh, RWDD3 / RFU, BCAT1 / Fold change vs veh, BCAT1 / RFU, EDEM3 / Fold change vs veh, EDEM3 / RFU, TMEM33 / Fold change vs veh, TMEM33 / RFU, WDR75 / Fold change vs veh, WDR75 / RFU, AHCTF1 / Fold change vs veh, AHCTF1 / RFU, TFRC / Fold change vs veh, TFRC / RFU, ZDHHC17 / Fold change vs veh, ZDHHC17 / RFU, NOM1 / Fold change vs veh, NOM1 / RFU, ARL8B / Fold change vs veh, ARL8B / RFU, ZBTB11 / Fold change vs veh, ZBTB11 / RFU, TAMM41 / Fold change vs veh, TAMM41 / RFU, KIAA1704 /// LOC100996395 / Fold change vs veh, KIAA1704 /// LOC100996395 / RFU, ING1 / Fold change vs veh, ING1 / RFU, TRMT61B / Fold change vs veh, TRMT61B / RFU, FUBP3 / Fold change vs veh, FUBP3 / RFU, TP53 / Fold change vs veh, TP53 / RFU, TNKS2 / Fold change vs veh, TNKS2 / RFU, ZFP14 / Fold change vs veh, ZFP14 / RFU, ACTR2 / Fold change vs veh, ACTR2 / RFU, PPP3R1 / Fold change vs veh, PPP3R1 / RFU, PIK3R1 / Fold change vs veh, PIK3R1 / RFU, HNRNPA1 / Fold change vs veh, HNRNPA1 / RFU, RNF170 / Fold change vs veh, RNF170 / RFU, ZNF28 / Fold change vs veh, ZNF28 / RFU, RNGTT / Fold change vs veh, RNGTT / RFU, OGT / Fold change vs veh, OGT / RFU, BRD1 / Fold change vs veh, BRD1 / RFU, MARS / Fold change vs veh, MARS / RFU, ZNF655 / Fold change vs veh, ZNF655 / RFU, FAHD1 / Fold change vs veh, FAHD1 / RFU, BDP1 / Fold change vs veh, BDP1 / RFU, LRRCC1 / Fold change vs veh, LRRCC1 / RFU, ARID1A / Fold change vs veh, ARID1A / RFU, ZNF146 / Fold change vs veh, ZNF146 / RFU, ZNF330 / Fold change vs veh, ZNF330 / RFU, GPN3 / Fold change vs veh, GPN3 / RFU, C9orf123 / Fold change vs veh, C9orf123 / RFU, N4BP2L2 / Fold change vs veh, N4BP2L2 / RFU, ARFIP1 / Fold change vs veh, ARFIP1 / RFU, FAM179B / Fold change vs veh, FAM179B / RFU, BCL10 / Fold change vs veh, BCL10 / RFU, UHRF1BP1L / Fold change vs veh, UHRF1BP1L / RFU, BET1 / Fold change vs veh, BET1 / RFU, CNOT2 / Fold change vs veh, CNOT2 / RFU, ZNF268 / Fold change vs veh, ZNF268 / Fold change vs veh, ZNF507 / RFU, DGCR2 / Fold change vs veh, DGCR2 / RFU, WDSUB1 / Fold change vs veh, WDSUB1 / Fold change vs veh, HSP90B1 /// MIR3652 / RFU, ADSS / Fold change vs veh, ADSS / RFU, GK / Fold change vs veh, GK / RFU, ZNF148 / Fold change vs veh, ZNF148 / RFU, TAF9 / Fold change vs veh, TAF9 / RFU, SLC1A5 / Fold change vs veh, SLC1A5 / RFU, SLMO2 / Fold change vs veh, SLMO2 / RFU, ABCC4 / Fold change vs veh, ABCC4 / RFU, LOC101060439 /// RAP1B / Fold change vs veh, LOC101060439 /// RAP1B / RFU, RFX7 / Fold change vs veh, RFX7 / RFU, GTPBP10 / Fold change vs veh, GTPBP10 / RFU, CNEP1R1 / Fold change vs veh, CNEP1R1 / RFU, BIVM-ERCC5 /// ERCC5 / Fold change vs veh, BIVM-ERCC5 /// ERCC5 / RFU, ILF3 / Fold change vs veh, ILF3 / RFU 11762660_at / Fold change /veh 11762660_at / RFU VCAN (11757783_s_at) / Fold change /veh VCAN (11757783_s_at) / RFU DDX43 (11728927_at) / Fold change /veh DDX43 (11728927_at) / RFU KRT8 (11758188_x_at) / Fold change /veh KRT8 (11758188_x_at) / RFU NKD1 (11759106_at) / Fold change /veh NKD1 (11759106_at) / RFU SRD5A1 (11742802_a_at) / Fold change /veh SRD5A1 (11742802_a_at) / RFU TPSAB1 /// TPSB2 (11721975_s_at) / Fold change /veh TPSAB1 /// TPSB2 (11721975_s_at) / RFU GSTM3 (11746129_a_at) / Fold change /veh GSTM3 (11746129_a_at) / RFU IL23R (11737362_x_at) / Fold change /veh IL23R (11737362_x_at) / RFU TMEM51 (11727254_a_at) / Fold change /veh TMEM51 (11727254_a_at) / RFU PIWIL2 (11732686_x_at) / Fold change /veh PIWIL2 (11732686_x_at) / RFU ORM1 (11744905_x_at) / Fold change /veh ORM1 (11744905_x_at) / RFU CCDC152 (11743942_at) / Fold change /veh CCDC152 (11743942_at) / RFU ECM1 (11717891_a_at) / Fold change /veh ECM1 (11717891_a_at) / RFU IL23R (11748794_a_at) / Fold change /veh IL23R (11748794_a_at) / RFU TNFAIP8L3 (11732012_x_at) / Fold change /veh TNFAIP8L3 (11732012_x_at) / RFU MBOAT4 (11741988_at) / Fold change /veh MBOAT4 (11741988_at) / RFU 11764193_at / Fold change /veh 11764193_at / RFU TMEM53 (11763286_at) / Fold change /veh TMEM53 (11763286_at) / RFU MAGEB2 (11727129_at) / Fold change /veh MAGEB2 (11727129_at) / RFU TMEM200A (11744735_a_at) / Fold change /veh TMEM200A (11744735_a_at) / RFU CCDC152 (11751479_a_at) / Fold change /veh CCDC152 (11751479_a_at) / RFU FAM211A (11726209_a_at) / Fold change /veh FAM211A (11726209_a_at) / RFU RGS16 (11746705_a_at) / Fold change /veh RGS16 (11746705_a_at) / RFU VCAN (11755009_s_at) / Fold change /veh VCAN (11755009_s_at) / RFU RHOB (11743442_s_at) / Fold change /veh RHOB (11743442_s_at) / RFU RGS16 (11720943_a_at) / Fold change /veh RGS16 (11720943_a_at) / RFU RGS16 (11720944_at) / Fold change /veh RGS16 (11720944_at) / RFU, VPS4B / Fold change vs veh, VPS4B / RFU, CREB1 / Fold change vs veh, CREB1 / RFU, DNAJC13 / Fold change vs veh, DNAJC13 / RFU, GNAQ / Fold change vs veh, GNAQ / RFU, CDK5R1 / Fold change vs veh, CDK5R1 / RFU, ZRANB3 / Fold change vs veh, ZRANB3 / RFU, CUL4A / Fold change vs veh, CUL4A / RFU, CCNY / Fold change vs veh, CCNY / RFU, UFL1 / Fold change vs veh, UFL1 / RFU, COG3 / Fold change vs veh, COG3 / RFU, DIAPH2 / Fold change vs veh, DIAPH2 / RFU, SKA2 / Fold change vs veh, SKA2 / RFU, AFF3 / Fold change vs veh, AFF3 / RFU, LMF1 / Fold change vs veh, LMF1 / RFU, IPO11 / Fold change vs veh, IPO11 / RFU, DFFB / Fold change vs veh, DFFB / RFU, FOXP1 / Fold change vs veh, FOXP1 / RFU, CARD8 / Fold change vs veh, CARD8 / RFU, STRN3 / Fold change vs veh, STRN3 / RFU, ADK / Fold change vs veh, ADK / RFU, RASSF2 / Fold change vs veh, RASSF2 / RFU, WIPF1 / Fold change vs veh, WIPF1 / RFU, LARP1B / Fold change vs veh, LARP1B / RFU, RASA1 / Fold change vs veh, RASA1 / RFU, RB1 / Fold change vs veh, RB1 / RFU, PPFIA1 / Fold change vs veh, PPFIA1 / RFU, MAT2A / Fold change vs veh, MAT2A / RFU, CCT5 / Fold change vs veh, CCT5 / RFU, WDR92 / Fold change vs veh, WDR92 / RFU, CUX1 / Fold change vs veh, CUX1 / RFU, TTC7A / Fold change vs veh, TTC7A / RFU, TMEM135 / Fold change vs veh, TMEM135 / RFU, DEPTOR / Fold change vs veh, DEPTOR / RFU, CPM / Fold change vs veh, CPM / RFU, DNAJB6 / Fold change vs veh, DNAJB6 / RFU, CACNA2D3 / Fold change vs veh, CACNA2D3 / RFU, DTX4 / Fold change vs veh, DTX4 / RFU, TFCP2 / Fold change vs veh, TFCP2 / RFU, GMCL1 /// GMCL1P1 / Fold change vs veh, GMCL1 /// GMCL1P1 / RFU, AEBP2 / Fold change vs veh, AEBP2 / RFU, SNHG1 /// SNORD22 /// SNORD25 /// SNORD26 /// SNORD27 /// SNORD28 /// SNORD29 /// SNORD31 / Fold change vs veh, SNHG1 /// SNORD22 /// SNORD25 /// SNORD26 /// SNORD27 /// SNORD28 /// SNORD29 /// SNORD31 / Fold change (Aza/veh), C12orf56 (ProbeSet 11735607_a_at) / Fold change (ACY-1035/veh), C12orf56 (ProbeSet 11735607_a_at) / Fold change (Aza/veh), FGFR1OP (ProbeSet 11751329_s_at) / Fold change (ACY-1035/veh), FGFR1OP (ProbeSet 11751329_s_at) / Fold change (Aza/veh), VPS36 (ProbeSet 11739960_a_at) / Fold change (ACY-1035/veh), VPS36 (ProbeSet 11739960_a_at) / RFU SYPL1 (11715823_x_at) / Fold change /veh SYPL1 (11715823_x_at) / RFU IGFBP7 (11715501_s_at) / Fold change /veh IGFBP7 (11715501_s_at) / RFU REEP3 (11722064_at) / Fold change /veh REEP3 (11722064_at) / RFU IGLL1 (11728026_x_at) / Fold change /veh IGLL1 (11728026_x_at): dose or concentration left out as unconfirmed
Settings: ProbeSet 11718977_a_at; LIST B

Nc1ncn([C@@H]2O[C@H](CO)[C@@H](O)[C@H]2O)c(=O)n1 [azacitidine]
Fold change vs veh, CAPN2: 0.92
